Ends that are not written are not given here.
Tested on: 幽门螺杆菌SS1菌株
Assay: Inhibition of Helicobacter pylori biofilm formation (crystal violet staining, A595)
Assay type: cell-based
Details: peptide 5, 10, 20, 40, 80μg/mL (Fig. 1)

Sequence: KRIVQRIKDIKP [实施例4]
- Concentration dependence of inhibition of biofilm formation: 随着多肽的浓度增大，对生物膜生成的抑制率不断增加

Reference: CN110590914A, “一种抑制和消除幽门螺杆菌生物膜生成的蜂蜜和多肽组合物” (Anhui University of Science and Technology, priority 2019, dated 2019)
